Data set [1] addresses T1, solubilized γ-secretase (Homo sapiens, UniProt P49768).
T1 construct: γ-secretase activity from HeLa cells specifically cleaves the Notch protein; endogenous in cells; host or cells: HeLa cells (detergent-solubilized membrane fraction); substrate made in E. coli BL21 (DE3)
Briefly: In vitro Notch cleavage ELISA (NusA-Notch fusion cleaved by solubilized γ-secretase, Val-1744/anti-FLAG sandwich). Format: biochemical. As to the method:
In vitro Notch Cleavage ELISA. Notch cleavage was also assessed using an ELISA technique. Prior to setting up a reaction, the required number of wells in a 96-well half-area plate (Costar) were coated with 50 μl of Val-1744 antibody diluted 1:200 in 0.1 M NaHCO3, pH 8.2. Plates were incubated overnight at 4° C. The Notch cleavage reaction was set up as follows. NusA-Notch (0.9 μM) was incubated with 70 mg/ml of solubilized γ-secretase in 50 mM Pipes, pH 7.0, 0.25% CHAPSO in a total volume of 25 μl overnight at 37° C. The next day, the plate coated with Val-1744 antibody was washed 3 times with PBS/0.05% Tween-20 and blocked using 4% BSA in PBS/0.05% Tween-20 for 1 hour. […] The color was allowed to develop for 1 hour and 50 µl of 1M H3PO4 was added and the plates read at 450 nm on a SpectraMax Plus plate reader. […]
Inhibition of Notch Cleavage. […] IC50′s were calculated for inhibitors using the 4-parameter logistic model in the GraFit 4.0 program.
It is based on a sandwich ELISA using the highly specific anti-Val 1744 and anti Flag antibodies to capture the N- and C-terminus of the NICD fragment from the Notch fusion protein in the presence of γ-secretase. […] The chromogenic substrate for HRP, TMB reagent (Kirkegaard & Perry) is added and the color once developed is read at 450 nm on a SpectraMax Plus plate reader.

In data set [2] the target is T1, solubilized γ-secretase. Briefly: Cleavage of Notch as determined by Western blot analysis. Format: biochemical. As to the method: Cleavage of Notch as Determined by Western Blot Analysis. NusA-Notch fusion (1.7 μM) was incubated with 70 mg/ml solubilized γ-secretase in 50 mM Pipes, pH 7.0, 0.25% CHAPSO in a total volume of 50 μl overnight at 37° C. DAPT (PHA-568638) was added at varying concentrations. The reactions were stopped with the addition of 12.5 μl of 5× Laemmli buffer (Laemmli 1970) and 30 μl of the mixture was electrophoresed on a 15% SDS-PAGE. Proteins were transferred to nitrocellulose using a semi-dry blot apparatus (Millipore) and blocked for 2 hours using 4% BSA in PBS/0.5% Tween-20. […] The membrane was washed three times with PBS/0.5% Tween-20 followed by incubation with anti-rabbit IgG-HRP (1:5000 dil in 4% BSA in PBS/0.5% Tween-20). The membrane was again washed three times and developed using ECL reagents (Amersham, Piscataway, N.J.).
(In western blotting, separated proteins are transferred to a membrane and probed.)

Experimental findings from patent US20110098227A1, “Soluble notch-based substrates for gamma secretase and methods and compositions for using same” (priority 2002, published 2011) are described below.

As usually defined, the Km is the concentration of substrate that gives half-maximal velocity. For “Notch fusion protein substrate: soluble fusion of mouse Notch-1 amino acids 1703-1860 to C-terminus of NusA with C-terminal Flag and 8His tags (SEQ ID NO:2)”, the Km in the data set with solubilized γ-secretase [1] (Michaelis-Menten fit, 0.11 to 3.6 μM substrate, FIG. 8A, read-out: apparent Km for hydrolysis of Notch fusion protein substrate by solubilized γ-secretase activity) is approximately 0.7 µM.

A word on the IC50: it is the concentration at which inhibition is half-maximal. `C[C@H](NC(=O)Cc1cc(F)cc(F)c1)C(=O)N[C@H](C(=O)OC(C)(C)C)c1ccccc1` [DAPT]: on solubilized γ-secretase [1] (NusA-Notch substrate, overnight 37° C., FIG. 9, read-out: IC50, inhibition of γ-secretase-mediated Notch cleavage), the IC50 is 2.4 nM. The “inhibition of specific cleavage in Notch protein (1743/1744)” value on solubilized γ-secretase [2] (Western blot probed with Val-1744 antibody, varying concentrations, FIG. 5 lanes 4-8) is “inhibited in a dose-dependent manner”. Besides, the “inhibition of cleavage products of Notch fusion protein” value on solubilized γ-secretase [2] (Western blot using the C-terminal Flag antibody, three immunoreactive bands) was “only one cleavage product was inhibitable”.
